Measured values from patent US4088772A, “Methanodibenzocycloheptapyrroles” (E. I. Du Pont de Nemours and Company, priority 1975, dated 1978).
Counter-ions that a name gives are not always drawn. Like-named read-outs stand apart in the source and are kept apart here.

Columns and labels:
[1] = in vivo; details: mouse, in vivo, po
[2] = test system: female white mice; test: animal or person; details: Mus musculus, po
[3] = test system: phenylquinone-induced writhing; test: Phenylquinone writhing test (analgesia); format: in vivo, mouse (Carworth CF1 S female); details: for ED50: Mus musculus
Source text: This mouse test is predictive of analgesic response in humans. [E. Siegmund, R. Cadmus and G. Lee, Proc. Soc.
ED50 values were obtained graphically from the data.

[4] = read-out: Catatonia ED50, Table III, oral, mice
[5] = read-out: Exploratory Loss Visual ED50, Table III, oral, mice
[6] = read-out: Muscle Tone ED50, Table III, oral, mice
[7] = read-out: Reflexes Grip ED50, Table III, oral, mice
[8] = read-out: Reflexes Lift ED50, Table III, oral, mice
[9] = read-out: Reflexes Pinna ED50, Table III, oral, mice
[10] = read-out: Catatonia ED50, Table 1, oral, mice
[11] = read-out: Exploratory Loss Visual ED50, Table 1, oral, mice
[12] = read-out: Muscle Tone ED50, Table 1, oral, mice
[13] = read-out: Ptosis ED50, Table 1, oral, mice
[14] = read-out: Reflexes Grip ED50, Table 1, oral, mice
[15] = read-out: Reflexes Lift ED50, Table 1, oral, mice
[16] = read-out: Reflexes Pinna ED50, Table 1, oral, mice
[17] = read-out: Ptosis ED50, Table III, oral, mice

Structure (SMILES)	LD50 at 24 h [1] [mg/kg]	ED50 [2, 4] [mg/kg]	ED50 [2, 5] [mg/kg]	ED50 [2, 6] [mg/kg]	ED50 [2, 7] [mg/kg]	ED50 [2, 8] [mg/kg]	ED50 [2, 9] [mg/kg]	ED50 [1] [mg/kg]	ED50 [2, 10] [mg/kg]	ED50 [2, 11] [mg/kg]	ED50 [2, 12] [mg/kg]	ED50 [2, 13] [mg/kg]	ED50 [2, 14] [mg/kg]	ED50 [2, 15] [mg/kg]	ED50 [2, 16] [mg/kg]	ED50 ([3]; po, Table 1, mice) [mg/kg]	other results
Nc1ccc2c(c1)[C@H]1CN(CC3CCCC3)C[C@@]13C[C@@H]2c1ccc(N)cc13 (relative stereo) [Example 72, 5,11-Diamino-2-cyclopentylmethyl-2,3,8,12b-tetrahydro-1H-3a,8-methanodibenzo[3,4:6,7]cyclohepta[1,2-c]pyrrole]	> 324	20	60	36	200	60	20										ED50 ([3]; po, Table III, mice): 7 mg/kg
c1ccc2c(c1)C1CC3(CN(CC4CCCCCC4)CC23)c2ccccc21 (centres unmarked) [Example 32, 2-Cycloheptylmethyl-2,3,8,12b-tetrahydro-1H-3a,8-methanodibenzo[3,4:6,7]cyclohepta[1,2-c]pyrrole]	> 324							> 324	12	7	36	< 4	200	20	60	2.9	
CCCCCN1C[C@@H]2c3ccccc3[C@@H]3C[C@@]2(C1)c1ccccc13 (relative stereo) [Example 59, 2-n-Pentyl-2,3,8,12b-tetrahydro-1H-3a,8-methanodibenzo[3,4:6,7]cyclohepta[1,2-c]pyrrole]	> 324								17	8.4	13	4.5	100	19	8		ED50 ([3]; Table 1, oral, mice): 8.2 mg/kg
c1ccc2c(c1)C1CC3(CN(CCC4CCCC4)CC23)c2ccccc21 (centres unmarked) [Example 22, 2-(2-Cyclopentylethyl)-2,3,8,12b-tetrahydro-1H-3a,8-methanodibenzo[3,4:6,7]cyclohepta[1,2-c]pyrrole]	> 324							> 324	18	32	3.6		265	17	11	10	ED50 ([2]; read-out: Ptosis ED50, Table 1, Extrapolated value): 3 mg/kg
Clc1ccc2c(c1)[C@H]1CN(CC3CCCC3)C[C@@]13C[C@@H]2c1ccc(Cl)cc13 (relative stereo) [Example 79, 5,11-Dichloro-2-cyclopentylmethyl-2,3,8,12b-tetrahydro1H-3a,8-methanodibenzo[3,4:6,7]cyclohepta[1,2-c]pyrrole Hydrochloride]	> 324	20	7	36	> 324	36	7										ED50 [2, 17]: 7 mg/kg; Phenylquinone Analgesia ED50 ([3]; Table III, oral, mice): active
Oc1ccc2c(c1)[C@]13C[C@H]2c2ccccc2[C@H]1CN(CC1CCCC1)C3 (relative stereo) [Example 68, 5-Hydroxy-2-cyclopentylmethyl-2,3,8,12b-tetrahydro-1H-3a,8-methanodibenzo[3,4:6,7]cyclohepta[1,2-c]pyrrole Hydrochloride]	> 324	20	12	20	> 324	60	36										ED50 [2, 17]: 12 mg/kg; ED50 ([3]; po, Table III, mice): 19 mg/kg
C=C1CC(CN2CC3c4ccccc4C4CC3(C2)c2ccccc24)C1 (centres unmarked) [Example 20, 2-(3-Methylenecyclobutylmethyl)-2,3,8,12b-tetrahydro-1H-3a,8-methanodibenzo[3,4:6,7]cyclohepta[1,2-c]pyrrole]	> 324							> 324	13	21	15	11	362	21	24	8.2	
